Assay results reported in patent publication US20210308120A1, “Use of Amitriptyline for Blocking Brain Hemichannels and Method for Potentiating its Effect in Vivo” (THERANEXUS, priority 2015, published 2021).

Key:
[1] = test system: LPS-injected mice (neuro-inflammation); test: LPS-induced model of neuro-inflammation (coat state score, weight loss); assay type: in vivo, mouse; conditions: amitriptyline 1 mg/kg ± mefloquine 1 mg/kg
Text: FIG. 13 represents the coat state scores evaluated three hours after treatment in a LPS-induced model of neuro-inflammation (left graph). The right graph represents the amount of weight loss between three hours of treatment and just before treatment in a LPS-induced model of neuro-inflammation (right graph). Control mice were ip injected with saline solution. […] In both graphs: n=4-6 mice per group, data are presented as means±SEM and compared with a One-way ANOVA followed by Tukey's post-hoc test, *p<0.05, […] versus CONTROL-treated mice.
Adult Swiss male mice were used in the LPS model. Mice were kept in collective cages for habituation to the facility for one week before experimental testing. Afterwards, they were housed in individual cages two days before the experiment started with food and water ad libitum. Mice were maintained on a light/dark cycle of 12 hours with light onset at 8h00 and with a controlled temperature of 21° C.±1° C. […]
Coat state score was evaluated three hours after treatment. […] The cleanness fur state was evaluated for each of these five body parts. […]
General physiological state of the animals was assessed by the normalised weight loss; defined as the difference between weight measures three hours after treatment (T0+24 h) and just before treatment (T0+21 h).

[2] = test system: SN-CCI rats (neuropathic pain, hyperalgesia); test: Randall & Selitto test in SN-CCI rats, chronic 14-day administration; assay type: in vivo, rat; conditions: amitriptyline 12 mg/kg s.c. osmotic pump; mefloquine 0.5 mg/kg i.p. twice a day; 14 days; vs saline
Text: Data are the means±S.E.M. of n=8-14 rats.
Data are the means±S.E.M. of n=8-14 rats. *p<0.05, **p<0.01, ***p<0.001 as compared with “saline+saline” group at the same time, ≠p<0.05 as compared between amitriptyline groups, two-way ANOVA, Bonferroni test.
One week after their arrival, rats were anesthetized with sodium pentobarbital before exposing the common sciatic nerve. As described in Bennett's article, four chromic catgut (5-0) ligations were tied loosely proximally to the sciatic trifurcation (Bennett and Xie, 1988).
All behavioral assessments were conducted between 9 a.m. and 5 p.m. in a quiet room. An increasing pressure was applied to the right hind paw of SN-CCI (Sciatic Nerve-Chronic Constriction Injury) rat to evaluate hyperalgesia-like behavior (Viguier and al, 2013). Values correspond to the pressure threshold producing the paw withdrawal and then the vocalization of the rat.
Osmotic mini-pumps (Alzet, model 2ML2), delivering for the following 14 days amitriptyline or vehicle were subcutaneously implanted.
a) Rats were ligated on sciatic nerve and then tested with the Randall & Selitto test 14 days after surgery, to evaluate hyperalgesia quantified as pressure threshold. Neuropathic rats, characterized by a decrease of pressure threshold after surgery, were then treated during 14 days and tested by the Randall & Selitto test during this period.

[3] = Pharmacokinetics of amitriptyline/mefloquine in plasma and brain of mice (LC-MS); assay type: in vivo, mouse; conditions: amitriptyline 6, 12 mg/kg, mefloquine 0.1, 0.3, 1 mg/kg i.p., 18 days, 2 hours after injection
Description: Data are presented as mean±SEM.
Adult male C57BL/6J mice (Charles River, L'Arbresle, France) were used. Mice were kept in collective cages for habituation to the facility for one week before experimental testing with food and water ad libitum. Mice were maintained on a light/dark cycle of 12 hours with light onset at 8h00 and with a controlled temperature of 21° C.±1° C.
Injections were done twice.
On day 18th of treatment, mice received the morning injection and samplings were done 2 hours after the injection. Mice were anesthetized just before sampling (ketamine 68 mg/kg, xylazine 10 mg/kg) and blood was collected by intracardiac puncture (Vacuette tubes, with lithium/heparin gel). The mouse was then decapitated, and the brain extracted and fast frozen in dry ice.
Vacuette tubes with blood were centrifugated (3000 rpm, 20 min), plasma recovered and stored at −80° C. until shipping in dry ice.

- Concentrations in blood and brain tissue [3]: dose-dependent
SMILES: CN(C)CCC=C1c2ccccc2CCc2ccccc21 [amitriptyline, 3-(5,6-dihydrodibenzo[2,1-b:2′,1′-f][7]annulen-11-ylidene)-N,N-dimethylpropan-1-amine]
- Weight loss ([1]; between just before and three hours after oral treatment): induces a decrease in weight loss
- Coat state score (grooming activity) ([1]; three hours after oral treatment, LPS 0.33 mg/kg i.p.): tendency to reduce the deterioration of coat state
- Paw withdrawal threshold (pressure) [2]: significant increase of the paw withdrawal threshold at day 14
- Vocalization threshold (pressure) [2]: increase of the vocalization threshold
